Earlier results in patent publication US20020102214A1, “Paramagnetic material-containing magnetic resonance external marker or calibration composition” (NYCOMED IMAGING AS., priority 1996, published 2002).

Conditions: at MRI fields, between 20° C. to 35° C., based on relaxivity data

Structure (SMILES): O=C([O-])CN(CCN(CC(=O)[O-])CC(=O)O)CCN(CC(=O)[O-])CC(=O)O.[Gd+3] [GdDTPA]
- variation of signal intensity with temperature: about 20%
